{"source": "patent EP2982368A1", "about": "“Small molecule compounds displacing focal adhesion core components” (Universität Konstanz, priority 2014, dated 2016)", "data": [{"system": "MDA-MB-231 breast cancer cells", "experiment": "In vitro wound healing assay", "format": "cell-based, human", "details": "3 µM, 25 h, serum-containing growth medium", "description": "Image J was used to automatically quantify FAK-containing focal adhesions due to local maxima of fluorescence intensity in the GFP-channel (5 to 70 pixel). The number of cells was automatically counted in the Hoechst channel. To test reproducibility of the system 40 control wells were quantified wherein four positions for each well were imaged. […] GFP-FAK mouse embryonic fibroblasts were seeded on fibronectin and incubated for 1 h with the indicated concentrations of the small compounds, respectively. […] GFP-FAK mouse embryonic fibroblasts were seeded on fibronectin and serum-starved overnight. The indicated concentrations of Mb31 were applied for 30 min. Cells were lysed and analyzed for paxillin and FAK protein level as well as FAK Tyr397 phosphorylation. […] The purified kinase domain of FAK was incubated with increasing amounts of Mb31 for 1 h at 30°C together with poly-Glu-Tyr as a FAK substrate. […] Serum-starved GFP-FAK mouse embryonic fibroblasts were stimulated with normal growth medium and incubated for 5 h with the indicated concentrations of the small molecule compounds, respectively. Cell viability was assessed by MTT assay. […] GFP-FAK MEFs were seeded on fibronectin and serum-starved overnight. Migration was stimulated by replacing the medium with normal growth medium. Migration of single cells was tracked for 8 h in 30 min intervals. Migration was recorded from cells that were cultured without serum (A), with serum (B) or with serum in the presence of 3 µM Mb31 (C). […] (A) GFP-FAK MEFs were seeded and serum-starved as in Figure 10. Cell migration was stimulated with normal growth medium and single cells were tracked for 5 h. (B) Mb31 was added and the same cells were tracked for additional 5 h. (C) Mean velocities of differently treated cells were plotted over time. […] NIH-v-Src fibroblasts were seeded on 2 µg/ml FN in DMEM/0.5%BSA and stimulated with 10 ng/ml EGF or kept unstimulated. […] Mouse embryonic fibroblasts (MEFs) were transfected with talin-mCherry and talin dynamics analyzed in focal adhesions using fluorescence recovery after photobleaching (FRAP). Cells were left untreated (A) or treated with 10 µM of Mb31 (B). In untreated cells, the mCherry intensity recovered, indicating replacement of bleached by non-bleached talin and therefore turnover of talin at focal adhesions. […] (C) Wound closure was microscopically analyzed and evaluated using ImageJ software.\nTo determine if the migration of transformed cells can be blocked by FLocker1 and related compounds, human breast carcinoma cells (MDA-MB-231) were used in in vitro wound healing assays. […] The ability of the cells to migrate and close the wound space was monitored by microscopy and quantified (Figure 18B and C).", "values": [{"compound": "O=[N+]([O-])/C=C/c1ccccc1F", "note": "[FootLocker 9, (E)-1-fluoro-2-(2-nitrovinyl) benzene]", "migration of cancer cells / wound closure": "retarded the migration of the cancer cells"}]}, {"target": "T1, FAK/Paxillin (Mus musculus, UniProt P34152+Q8VI36)", "T1 construct": "expressed in transfected cells; host or cells: mouse fibroblasts stably expressing GFP-FAK", "T1 sequence (P34152 whole entry)": "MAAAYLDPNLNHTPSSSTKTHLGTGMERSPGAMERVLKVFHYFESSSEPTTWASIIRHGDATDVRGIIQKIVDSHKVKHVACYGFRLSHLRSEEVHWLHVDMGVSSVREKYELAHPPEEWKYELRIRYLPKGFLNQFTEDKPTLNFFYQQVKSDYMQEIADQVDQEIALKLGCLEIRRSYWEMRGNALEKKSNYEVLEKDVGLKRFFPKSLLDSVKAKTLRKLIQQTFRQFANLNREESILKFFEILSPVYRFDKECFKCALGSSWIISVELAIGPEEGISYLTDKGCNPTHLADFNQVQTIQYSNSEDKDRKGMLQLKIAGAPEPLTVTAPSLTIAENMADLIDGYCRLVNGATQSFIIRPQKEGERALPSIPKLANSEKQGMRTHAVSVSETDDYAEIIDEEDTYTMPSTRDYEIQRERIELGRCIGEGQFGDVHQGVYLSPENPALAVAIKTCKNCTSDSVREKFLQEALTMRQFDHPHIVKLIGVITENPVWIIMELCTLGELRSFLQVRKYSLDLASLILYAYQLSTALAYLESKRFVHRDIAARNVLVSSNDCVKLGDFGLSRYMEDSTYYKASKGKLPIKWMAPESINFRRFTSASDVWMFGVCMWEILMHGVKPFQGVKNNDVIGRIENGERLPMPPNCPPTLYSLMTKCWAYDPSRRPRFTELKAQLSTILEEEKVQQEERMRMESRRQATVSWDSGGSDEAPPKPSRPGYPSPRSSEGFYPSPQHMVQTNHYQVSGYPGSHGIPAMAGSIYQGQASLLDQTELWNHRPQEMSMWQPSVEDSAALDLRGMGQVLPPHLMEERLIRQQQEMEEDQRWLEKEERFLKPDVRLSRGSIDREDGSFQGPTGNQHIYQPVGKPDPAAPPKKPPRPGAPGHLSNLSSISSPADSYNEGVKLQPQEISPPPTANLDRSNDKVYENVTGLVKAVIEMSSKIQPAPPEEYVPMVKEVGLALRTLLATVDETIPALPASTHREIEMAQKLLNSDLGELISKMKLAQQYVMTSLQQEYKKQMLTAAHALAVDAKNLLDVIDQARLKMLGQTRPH", "T1 sequence (Q8VI36 whole entry)": "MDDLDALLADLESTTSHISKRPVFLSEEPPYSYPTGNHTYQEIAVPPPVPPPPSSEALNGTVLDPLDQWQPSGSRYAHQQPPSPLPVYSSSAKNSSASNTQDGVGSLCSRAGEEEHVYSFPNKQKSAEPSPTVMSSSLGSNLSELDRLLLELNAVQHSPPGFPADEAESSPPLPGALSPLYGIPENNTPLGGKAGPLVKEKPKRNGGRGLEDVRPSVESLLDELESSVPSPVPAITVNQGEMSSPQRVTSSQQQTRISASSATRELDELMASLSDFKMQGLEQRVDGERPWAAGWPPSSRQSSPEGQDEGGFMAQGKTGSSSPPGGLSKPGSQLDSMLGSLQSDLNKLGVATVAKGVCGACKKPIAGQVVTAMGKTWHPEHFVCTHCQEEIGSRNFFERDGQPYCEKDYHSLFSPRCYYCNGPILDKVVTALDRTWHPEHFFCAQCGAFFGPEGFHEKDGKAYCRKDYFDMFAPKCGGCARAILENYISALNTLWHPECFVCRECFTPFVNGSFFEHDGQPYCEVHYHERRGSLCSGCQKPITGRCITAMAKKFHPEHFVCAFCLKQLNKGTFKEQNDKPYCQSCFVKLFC", "experiment": "FAK/Paxillin displacement by structurally related compounds (FootLocker series, confocal microscopy)", "format": "cell-based", "parameters": "key to Activtiy (activity towards FAK/Paxillin displacement): ++ indicates displacing effect at 5 µM; + at 20 µM; - indicates no observed effect", "details": "not given", "description": "To determine whether compounds structurally related to Mb31 and Mb36 are likewise suitable to interfere with FAK localization at focal adhesions, mouse fibroblasts stably expressing GFP-FAK were treated for 30 min with 1, 10 or 20 µM of the following compounds: trans-3-hydroxy-β-nitrostyrene (THBN), trans-4-Chloro-β-nitrostyrene (T4CN), trans-β-nitrostyrene (TBN), 4-chlorocinnamic acid (4CA), and trans-3-(4-bromothiophen-2-yl)acrylic acid (T34BA) (Figures 16 and 17). The cells were analyzed by confocal microscopy for GFP-FAK localization. DMSO treatment served as a vehicle control. […] Additional substituents at the aromatic structures, such as halogen atoms or hydroxy groups may contribute to the reactivity of the compound, but are not essential. Based on these findings, the inventors have extended their structure activity-relationship studies and synthesized additional related compounds, which, similar to Mb31, displace FAK and paxillin at concentrations below 10µM (++), displace FAK and paxillin at concentrations above 10 µM (+), or lack FAK and paxillin displacing activity (-). All these substances were then also nicknamed in the FLocker terminology, resulting in FLocker1 - FLocker24 (Table 2). Table 2: Overview of FootLocker nomenclature, their chemical notation/structure and the activity towards FAK/Paxillin displacement", "values": [{"compound": "COc1cccc(/C=C/[N+](=O)[O-])c1", "note": "[FootLocker 4, (E)-1-methoxy-3-(2-nitrovinyl)benzene]", "compounds showing the most prominent effect on protein-protein interactions at focal adhesion site": "most prominent effect", "disruption of protein-protein interactions at focal adhesion site": "efficiently disrupt protein-protein interactions at focal adhesion site"}, {"compound": "C/C(=C\\c1ccc(Br)cc1)[N+](=O)[O-]", "note": "[compound 16]", "Activtiy (activity towards FAK/Paxillin displacement)": "++ (++ indicates displacing effect at 5 µM)"}, {"compound": "(E)-ethyl 6-(4-(2-nitrovinyl)phenoxy)hexanoate [FootLocker 5]", "disruption of protein-protein interactions at focal adhesion site": "efficiently disrupt protein-protein interactions at focal adhesion site"}, {"compound": "O=[N+]([O-])/C=C/c1ccccc1F", "note": "[FootLocker 9, (E)-1-fluoro-2-(2-nitrovinyl) benzene]", "compounds showing the most prominent effect on protein-protein interactions at focal adhesion site": "most prominent effect", "disruption of protein-protein interactions at focal adhesion site": "efficiently disrupt protein-protein interactions at focal adhesion site"}, {"compound": "Cc1ccc(/C=C/[N+](=O)[O-])cc1", "note": "[FootLocker 10, (E)-1-methyl-4-(2-nitrovinyl) benzene]", "compounds showing the most prominent effect on protein-protein interactions at focal adhesion site": "most prominent effect", "disruption of protein-protein interactions at focal adhesion site": "efficiently disrupt protein-protein interactions at focal adhesion site"}, {"compound": "O=C(O)/C=C/c1cc(Br)cs1", "note": "[compound 24]", "Activtiy (activity towards FAK/Paxillin displacement)": "-"}, {"compound": "C/C(=C\\c1ccccc1)[N+](=O)[O-]", "note": "[FootLocker 15, (E)-(2-nitroprop-1-en 1-yl)benzene]", "disruption of protein-protein interactions at focal adhesion site": "efficiently disrupt protein-protein interactions at focal adhesion site"}, {"compound": "O=[N+]([O-])C=Cc1cccnc1", "note": "[FootLocker 18, 3-(2-nitro-vinyl)-pyridine]", "disruption of protein-protein interactions at focal adhesion site": "efficiently disrupt protein-protein interactions at focal adhesion site"}, {"compound": "[N-]=[N+]=NCCOCCOCCOCCNC(=O)CCCCCCOc1cccc(/C=C/[N+](=O)[O-])c1", "note": "[FootLocker 7, (E)-N-(2-(2-(2-(2-azidoethoxy)ethoxy)ethoxy)ethyl)-7-(3-(2-nitrovinyl)phenoxy)heptanamide]", "disruption of protein-protein interactions at focal adhesion site": "efficiently disrupt protein-protein interactions at focal adhesion site"}, {"compound": "O=[N+]([O-])/C=C/c1cn(-c2ccccc2)c2ccccc12", "note": "[compound 20]", "Activtiy (activity towards FAK/Paxillin displacement)": "-"}, {"compound": "O=[N+]([O-])/C=C/c1cccc(Br)c1", "note": "[compound 11]", "Activtiy (activity towards FAK/Paxillin displacement)": "+ (+ at 20 µM)"}, {"compound": "CCOC(=O)CCCCCOc1ccc(/C=C/[N+](=O)[O-])cc1", "note": "[compound 5]", "Activtiy (activity towards FAK/Paxillin displacement)": "+ (+ at 20 µM)"}, {"compound": "[N-]=[N+]=NCCOCCOCCOCCNC(=O)CCCCCCOc1cccc(/C=C/[N+](=O)[O-])c1", "note": "[compound 7]", "Activtiy (activity towards FAK/Paxillin displacement)": "+ (+ at 20 µM)"}, {"compound": "O=[N+]([O-])/C=C/c1ccccc1F", "note": "[compound 9]", "Activtiy (activity towards FAK/Paxillin displacement)": "++ (++ indicates displacing effect at 5 µM)"}, {"compound": "C/C(=C\\c1ccc(Br)cc1)[N+](=O)[O-]", "note": "[FootLocker 16, 1-bromo-4-[(1E)-2-nitro-1-propenyl]benzene]", "compounds showing the most prominent effect on protein-protein interactions at focal adhesion site": "most prominent effect", "disruption of protein-protein interactions at focal adhesion site": "efficiently disrupt protein-protein interactions at focal adhesion site"}, {"compound": "O=[N+]([O-])/C=C/c1cccnc1", "note": "[compound 18]", "Activtiy (activity towards FAK/Paxillin displacement)": "+ (+ at 20 µM)"}, {"compound": "O=[N+]([O-])C=Cc1ccco1", "note": "[FootLocker 17, 2-(2-Nitrovinyl)-furan]", "compounds showing the most prominent effect on protein-protein interactions at focal adhesion site": "most prominent effect", "disruption of protein-protein interactions at focal adhesion site": "efficiently disrupt protein-protein interactions at focal adhesion site"}, {"compound": "O=[N+]([O-])/C=C/c1ccccc1O", "note": "[FootLocker 8, (E)-2-(2-nitrovinyl)phenol]", "disruption of protein-protein interactions at focal adhesion site": "efficiently disrupt protein-protein interactions at focal adhesion site"}, {"compound": "O=[N+]([O-])/C=C/c1cccc(O)c1", "note": "[compound 3]", "Activtiy (activity towards FAK/Paxillin displacement)": "++ (++ indicates displacing effect at 5 µM)"}, {"compound": "[N-]=[N+]=NCCOCCOCCOCCNC(=O)CCCCCCOc1cccc(C=O)c1", "note": "[compound 6]", "Activtiy (activity towards FAK/Paxillin displacement)": "-"}, {"compound": "O=[N+]([O-])/C=C/c1cccc(Br)c1", "note": "[FootLocker 11, (E)-1-bromo-3-(2-nitrovinyl)benzene]", "disruption of protein-protein interactions at focal adhesion site": "efficiently disrupt protein-protein interactions at focal adhesion site"}, {"compound": "Cc1ccc(/C=C/[N+](=O)[O-])cc1", "note": "[compound 10]", "Activtiy (activity towards FAK/Paxillin displacement)": "++ (++ indicates displacing effect at 5 µM)"}, {"compound": "O=[N+]([O-])/C=C/c1ccc(F)cc1", "note": "[compound 14]", "Activtiy (activity towards FAK/Paxillin displacement)": "++ (++ indicates displacing effect at 5 µM)"}, {"compound": "O=[N+]([O-])/C=C/c1cccc(Cl)c1", "note": "[compound 12]", "Activtiy (activity towards FAK/Paxillin displacement)": "+ (+ at 20 µM)"}, {"compound": "Nc1ccc(SC(C[N+](=O)[O-])c2ccc(Cl)cc2)cc1", "note": "(stereo not shown) [compound 2]", "Activtiy (activity towards FAK/Paxillin displacement)": "++ (++ indicates displacing effect at 5 µM)"}, {"compound": "COc1cccc(/C=C/[N+](=O)[O-])c1", "note": "[compound 4]", "Activtiy (activity towards FAK/Paxillin displacement)": "++ (++ indicates displacing effect at 5 µM)"}, {"compound": "O=[N+]([O-])/C=C/c1cccc([N+](=O)[O-])c1", "note": "[FootLocker 13, (E)-1-nitro-3-(2-nitrovinyl)benzene]", "compounds showing the most prominent effect on protein-protein interactions at focal adhesion site": "most prominent effect", "disruption of protein-protein interactions at focal adhesion site": "efficiently disrupt protein-protein interactions at focal adhesion site"}, {"compound": "O=[N+]([O-])/C=C/c1c[nH]c2ccccc12", "note": "[compound 19]", "Activtiy (activity towards FAK/Paxillin displacement)": "-"}, {"compound": "O=[N+]([O-])/C=C/c1cccc(Cl)c1", "note": "[FootLocker 12, (E)-1-chloro-3-(2-nitrovinyl)benzene]", "disruption of protein-protein interactions at focal adhesion site": "efficiently disrupt protein-protein interactions at focal adhesion site"}, {"compound": "O=[N+]([O-])/C=C/c1ccco1", "note": "[compound 17]", "Activtiy (activity towards FAK/Paxillin displacement)": "++ (++ indicates displacing effect at 5 µM)"}, {"compound": "O=[N+]([O-])/C=C/c1ccccc1O", "note": "[compound 8]", "Activtiy (activity towards FAK/Paxillin displacement)": "+ (+ at 20 µM)"}, {"compound": "O=[N+]([O-])/C=C/c1cc(Br)cs1", "note": "[compound 1]", "Activtiy (activity towards FAK/Paxillin displacement)": "++ (++ indicates displacing effect at 5 µM)"}, {"compound": "O=C/C=C/c1ccc(Cl)cc1", "note": "[compound 22]", "Activtiy (activity towards FAK/Paxillin displacement)": "-"}]}]}
